The text below walks through data of paper PMC9534826 (Journal of Applied Glycoscience, 2022).

In this assay the test system is PxXyl43A. As to the kind of experiment: p-nitrophenol release, absorbance at […] nm. Format: biochemical, Paenibacillus xylaniclasticus. Conditions: pH 7.0, 50 mM potassium phosphate, 54 °C, 1.5 min, 1.8 to 9.0 mM pNPX.

Regarding `O=[N+]([O-])c1ccc(O[C@@H]2OC[C@@H](O)[C@H](O)[C@H]2O)cc1` [pNPX], the Km was determined as 1200 µM.
